From patent US8222296B2, “Conjugates comprising a GABA- or glycine compound, pharmaceutical compositions and combinations thereof and their use in treating CNS disorders” (Ramot at Tel-Aviv University Ltd., priority 2006, dated 2012)
Counter-ions that a name gives are not always drawn.

Assays:
[1] = Stability of BIL-1022 in water and methanol; assay type: physicochemical; settings: low pH (3-5), room temperature (20-25° C.)
Method: The stability of BIL-1022 was briefly studied. BIL-1022 is stable in water and methanol at low pH (3-5) at room temperature (20-25° C.).

[2] = Water content (Karl-Fisher titration) after sitting uncapped on the bench overnight; assay type: physicochemical; settings: 0.15% vs. 0.16%
Method: Water content was measured using Karl-fisher titration.

CC(=O)Nc1ccc(OC(=O)CCCN)cc1 [BIL-1022, 4-acetamidophenyl 4-aminobutanoate hydrochloride]
stability in water and methanol [1]: stable | water content of the product upon sitting in vial (uncapped) on the bench overnight [2]: remained substantially unchanged
